US20240025906A1 (NEURON23, INC., priority 2022, published 2024)
Like-named read-outs stand apart in the source and are kept apart here.

What was measured:
[1] = test system: JAK1/TYK2 pSTAT5 (Tyr694/699) in THP-1 cell line; test: IFNa-stimulated JAK1/TYK2 pSTAT5 (Tyr694/699) inhibition cellular assay, AlphaLISA; type: cell-based; conditions: Homo sapiens, THP-1 cells, AlphaLISA (Assay B)
How it was run: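 THP-1 cells (2e4/well in HBSS) were preincubated with compound (8 points, 6-fold steps from 10000 nM final) for 1 h at 37 °C, then stimulated with IFNa (added at 100 ng/mL) for 30 min. Lysate pSTAT5 was read by AlphaLISA at 615 nm. IC50 came from a 4-parameter fit with bottom 0 and Hill −1.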

TYK2 JH2 = target: T1, TYK2 JH2 (Homo sapiens, UniProt P29597); test: TYK2 JH2 binding assay (KINOMEscan KdELECT competitive binding); conditions: TYK2 JH2 domain
T1 construct: purchased DiscoverX (KINOMEscan KdELECT service); host or cells: E. coli BL21-derived (T7 phage display) or HEK-293
T1 sequence (P29597 589-875 limits assumed): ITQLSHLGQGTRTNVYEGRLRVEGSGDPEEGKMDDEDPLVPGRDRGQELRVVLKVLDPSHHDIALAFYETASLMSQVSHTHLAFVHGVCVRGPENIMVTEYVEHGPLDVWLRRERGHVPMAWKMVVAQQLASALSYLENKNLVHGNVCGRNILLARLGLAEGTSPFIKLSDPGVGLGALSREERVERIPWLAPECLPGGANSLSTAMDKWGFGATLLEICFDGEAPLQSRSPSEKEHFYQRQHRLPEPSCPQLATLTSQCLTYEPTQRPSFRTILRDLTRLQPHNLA
How it was run: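 Competition binding, KdELECT format. Kinase (phage-tagged, E. coli BL21-derived host; or HEK-293, DNA-tagged) + ligand-coated streptavidin beads + cpd, 1 h RT, final DMSO 0.9%. Wash, elute 30 min with 0.5 μM non-biotinylated ligand; qPCR readout. Kd: 11-pt, 3-fold series.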

[2] = IFNa-stimulated, read-out: Cellular_THP1_IFNa-pSTATS_TYK2
[3] = KINOMEscan KdELECT (Assay A), read-out: Biochemical TYK2_DiscoverX_JH2_BND_Kd
[4] = IFNa-stimulated, read-out: Cellular THP1_IFNa-pSTATS_IC50
[5] = KINOMEscan KdELECT (Assay A), read-out: Biochemical TYK2_JH2_Kd
[6] = DiscoverX KINOMEscan KdELECT (Assay A), read-out: Biochemical TYK2_DiscoverX_JH2_BND_Kd
[7] = IFNa-stimulated pSTAT5 (Tyr694/699), read-out: Cellular_THP1_IFNa-pSTATS_TYK2

| IC50 [1, 2] [nM] | Kd (TYK2 JH2; [3]) [nM] | SMILES | also measured |
| --- | --- | --- | --- |
| ≤ 500 | ≤ 100 | CNc1ncc(C#Cc2ccc(C)cn2)c2cc(NC(=O)C3CC3)ncc12 [Example 659, N-(8-(methylamino)-5-((5-methylpyridin-2-yl)ethynyl)-2,7-naphthyridin-3-yl)cyclopropanecarboxamide] | – |
| ≤ 500 | ≤ 100 | CNc1ncc(C#Cc2ccnc(C(F)(F)F)c2)c2cc(NC(=O)C3CC3)ncc12 [Example 623, N-(8-(methylamino)-5-((2-(trifluoromethyl)pyridin-4-yl)ethynyl)-2,7-naphthyridin-3-yl)cyclopropanecarboxamide] | – |
| > 500 | ≤ 100 | CNc1ncc(C2=CCC(c3ncnn3C)C2)c2cc(NC(=O)C3CC3)ncc12 (centres unmarked) [Example 835, N-(5-(4-(1-methyl-1H-1,2,4-triazol-5-yl)cyclopent-1-en-1-yl)-8-(methylamino)-2,7-naphthyridin-3-yl)cyclopropanecarboxamide] | – |
| ≤ 500 | ≤ 100 | CNc1ncc(-c2nc3cc(N4CCOC(C(C)(C)O)C4)ccc3o2)c2cc(NC(=O)C3CC3)ncc12 (centres unmarked) [Example 924, N-(5-(5-(2-(2-hydroxypropan-2-yl)morpholino)benzo[d]oxazol-2-yl)-8-(methylamino)-2,7-naphthyridin-3-yl)cyclopropanecarboxamide] | – |
| – | – | CNc1ncc(C)c2cc(NC(=O)C3CC3)ncc12 [Example 27, N-(5-methyl-8-(methylamino)-2,7-naphthyridin-3-yl)cyclopropanecarboxamide] | IC50 [1, 4]: > 500 nM; Kd (TYK2 JH2; [5]): ≤ 100 nM |
| ≤ 500 | – | CNc1ncc(-c2nc3cc(N4CC5CC(CN(C(C)=O)C5)C4)ccc3o2)c2cc(NC(=O)C3CC3)ncc12 [Example 326, N-(5-(5-(7-acetyl-3,7-diazabicyclo[3.3.1]nonan-3-yl)benzo[d]oxazol-2-yl)-8-(methylamino)-2,7-naphthyridin-3-yl)cyclopropanecarboxamide] | Kd (TYK2 JH2; [6]): ≤ 100 nM |
| – | ≤ 100 | CNc1ncc(C#Cc2cccc3c2OCCC3)c2cc(NC(=O)C3CC3)ncc12 [Example 1014, N-(5-(chroman-8-ylethynyl)-8-(methylamino)-2,7-naphthyridin-3-yl)cyclopropanecarboxamide] | IC50 [1, 7]: ≤ 500 nM |
| ≤ 500 | ≤ 100 | CNc1ncc(C#Cc2ncc(OC)cc2Cl)c2cc(NC(=O)C3CC3)ncc12 [Example 643, N-(5-((3-chloro-5-methoxypyridin-2-yl)ethynyl)-8-(methylamino)-2,7-naphthyridin-3-yl)cyclopropanecarboxamide] | – |
| – | – | CNc1ncc(-c2ccccc2OC)c2cc(NC(=O)C3CC3)ncc12 [Example 7, N-(5-(2-methoxyphenyl)-8-(methylamino)-2,7-naphthyridin-3-yl)cyclopropanecarboxamide] | IC50 [1, 4]: > 500 nM; Kd (TYK2 JH2; [5]): 100 to 1000 nM |
| – | – | CNc1ncc(-c2ccc3c(c2)OCCO3)c2cc(NC(=O)C3CC3)ncc12 [Example 108, N-(5-(2,3-dihydrobenzo[b][1,4]dioxin-6-yl)-8-(methylamino)-2,7-naphthyridin-3-yl)cyclopropanecarboxamide] | IC50 [1, 4]: > 500 nM; Kd (TYK2 JH2; [5]): ≤ 100 nM |
| ≤ 500 | ≤ 100 | CNc1ncc(-c2nc3cc(OC)ccc3o2)c2cc(NC(=O)C3CC3)nnc12 [Example 888, N-(5-(5-methoxybenzo[d]oxazol-2-yl)-8-(methylamino)pyrido[3,4-c]pyridazin-3-yl)cyclopropanecarboxamide] | – |
| – | ≤ 100 | CNc1ncc(C#Cc2ccc(-n3ccccc3=O)cc2)c2cc(NC(=O)C3(F)CC3)ncc12 [Example 1138, 1-fluoro-N-(8-(methylamino)-5-((4-(2-oxopyridin-1(2H)-yl)Phenyl)ethynyl)-2,7-naphthyridin-3-yl)cyclopropanecarboxamide] | IC50 [1, 7]: ≤ 500 nM |
| ≤ 500 | – | CNc1ncc(-c2nc3cc(N4CC(F)(F)C4)ccc3o2)c2cc(NC(=O)C3CC3)ncc12 [Example 279, N-(5-(5-(3,3-difluoroazetidin-1-yl)benzo[d]oxazol-2-yl)-8-(methylamino)-2,7-naphthyridin-3-yl)cyclopropanecarboxamide] | Kd (TYK2 JH2; [6]): ≤ 100 nM |
